Assay results as given in patent US20140329863A1 (priority 2011, published 2014).
Where “and” joins values, the source holds several entries; their conditions need not be identical. Equal entries are not always repeated. Where two headings read alike, the source gives them in different places.

Legend:
[1] = tested on: PrP^Sc in ScN2a-cl3 cells; format: cell-based, mouse; details: Western immunoblots
in vitro = details: mouse
N2a-cl3 cells [2] = details: mouse
[3] = tested on: PrP^Sc in dividing ScN2a-cl3 cells; format: cell-based, mouse; set-up: Dividing ELISA pEC50 (μM) 1st Expt. / Dividing ELISA pEC50 (μM) 2nd Expt. / Dividing ELISA pEC50 (μM) 3rd Expt. / Dividing ELISA pEC50 (μM) Mean: unit not given here
N2a-cl3 cells [4] = assay: cells; details: Mus musculus, N2a-cl3, read-out: Dividing Calcein EC50 (μM) Mean (n = 3)
[5] = Hepatic microsomal stability, rat; details: […]
[6] = tested on: PrP^Sc in nondividing ScN2a-cl3 cells; format: cell-based, mouse; details: read-out: Non-Dividing ELISA EC50 (μM) Mean (n = 3); ScN2a-c13 non-dividing cells; mean n = 3
[7] = read-out: EC50 (nM): Western, ScN2a-cl3 cells
[8] = read-out: Potency (nM) Western (EC50), dividing ScN2a-cl3 cells
[9] = read-out: EC50 (nM): ELISA, dividing ScN2a-cl3 cells
[10] = read-out: Potency (nM) ELISA (EC50), PrP^Sc ELISA, dividing ScN2a-cl3 cells
[11] = read-out: Antiprion activity EC50, thienopyridine analogs
[12] = read-out: Dividing ELISA EC50 (μM) 3rd Expt., ScN2a-cl3 dividing cells, 3rd determination
[13] = ScN2a-cl3 dividing cells, 1st determination
[14] = ScN2a-cl3 dividing cells, 2nd determination
[15] = ScN2a-cl3 dividing cells, 3rd determination
[16] = ScN2a-cl3 dividing cells, mean of three determinations
[17] = read-out: Dividing ELISA EC50 (μM) 1st Expt., ScN2a-cl3 dividing cells, 1st determination
[18] = read-out: Dividing ELISA EC50 (μM) 2nd Expt., ScN2a-cl3 dividing cells, 2nd determination
[19] = read-out: Dividing ELISA EC50 (μM) Mean, ScN2a-cl3 dividing cells, mean of three determinations

c1ccc2cc(-c3cn4ccsc4n3)ccc2c1 [IND-009413]
EC50 [1, 7]: 2490 nM
EC50 [1, 8]: 2490 nM
CC50 (in vitro): > 10000 nM
EC50 (nM): Calcein (LC50 values from calcein assays) (N2a-cl3 cells [2]): MW: 250.2 EC50 (nM): ELISA: 6015 Calcein: >10,000 Western: 2490
EC50 [3, 9]: 6020 nM
EC50 [3, 10]: 6020 nM

CCc1ccc(-c2cn3cc(C)sc3n2)cc1 [IND-0009416]
EC50 [1, 7]: 517 nM
EC50 [1, 8]: 517 nM
CC50 (in vitro): > 10000 nM
EC50 (nM): Calcein (LC50 values from calcein assays) (N2a-cl3 cells [2]): MW: 242.3 EC50 (nM): ELISA: 1776 Calcein: >10,000 Western: 517
EC50 [3, 9]: 1780 nM
EC50 [3, 10]: 1780 nM

CCc1ccc(-c2cn3ccccc3n2)cc1 [IND-0009417]
EC50 [1, 7]: 4720 nM
EC50 [1, 8]: 4720 nM
CC50 (in vitro): > 10000 nM
EC50 (nM): Calcein (LC50 values from calcein assays) (N2a-cl3 cells [2]): MW: 222.3 EC50 (nM): ELISA: 9158 Calcein: >10,000 Western: 4715
EC50 [3, 9]: 9160 nM
EC50 [3, 10]: 9160 nM

CCc1ccc(-c2cn3cc(C)ccc3n2)cc1 [IND-0009419]
EC50 [1, 7]: 265 nM
EC50 [1, 8]: 285 nM
CC50 (in vitro): > 10000 nM
EC50 (nM): Calcein (LC50 values from calcein assays) (N2a-cl3 cells [2]): MW: 236.3 EC50 (nM): ELISA: 709 Calcein: >10,000 Western: 265
EC50 [3, 9]: 709 nM
EC50 [3, 10]: 709 nM

CC(=O)c1ccc(N2CCN(Cc3cccnc3)CC2)cc1 [IND-0018629]
EC50 [1, 7]: 886 nM
EC50 [1, 8]: 886 nM
CC50 (in vitro): > 10000 nM
EC50 (nM): Calcein (LC50 values from calcein assays) (N2a-cl3 cells [2]): MW: 295.4 EC50 (nM): ELISA: 2943 Calcein: >10,000 Western: 886

CC(=O)c1ccc(N2CCN(Cc3ccccc3)CC2)cc1 [IND-0019136]
EC50 [1, 7]: 615 nM
EC50 [1, 8]: 615 nM
CC50 (in vitro): > 10000 nM
EC50 (nM): Calcein (LC50 values from calcein assays) (N2a-cl3 cells [2]): MW: 294.4 EC50 (nM): ELISA: 8681 Calcein: >10,000 Western: 615
EC50 [3, 9]: 8680 nM
EC50 [3, 10]: 8680 nM

c1cncc(-c2nc(-c3c[nH]c4ccccc34)cs2)c1 [IND-0024350]
EC50 [1, 7]: 828 nM
EC50 [1, 8]: 828 nM
CC50 (in vitro): > 10000 nM
EC50 (nM): Calcein (LC50 values from calcein assays) (N2a-cl3 cells [2]): MW: 277.3 EC50 (nM): ELISA: 321 Calcein: >10,000 Western: 828
EC50 [3, 9]: 321 nM
EC50 [3, 10]: 321 nM

COc1ccc(NC(=O)c2sc3nc(-c4cccs4)ccc3c2N)cc1OC [IND-0024573]
CC50 (in vitro): > 10000 nM
EC50 [3, 11]: 396 nM

CSc1ccc(NC(=O)c2sc3nc(-c4cccs4)ccc3c2N)cc1 [IND-0024576]
CC50 (in vitro): > 10000 nM
EC50 [3, 11]: 77 nM

Nc1c(C(=O)Nc2cc(F)ccc2F)sc2nc(-c3cccs3)ccc12 [IND-0024581]
CC50 (in vitro): > 10000 nM
EC50 [3, 11]: 2060 nM

O=C(Nc1nc(-c2ccc3ccccc3c2)cs1)C1CC1 [IND-0030883]
EC50 [1, 8]: 570 nM
CC50 (in vitro): > 10000 nM
EC50 [3, 10]: 913 nM

COc1ccc(-c2ccc3c(N)c(C(=O)Nc4ccc5c(c4)OCCO5)sc3n2)cc1 [IND-0035833]
CC50 (in vitro): > 10000 nM
EC50 [3, 11]: > 10000 nM

COc1ccc(-c2ccc3c(N)c(C(=O)Nc4ccc(F)cc4)sc3n2)cc1 [IND-0035860]
CC50 (in vitro): > 10000 nM
EC50 [3, 11]: 57 nM and 59 nM

COc1ccc(-c2ccc3c(N)c(C(=O)Nc4ccc(C(C)=O)cc4)sc3n2)cc1 [IND-0037769]
CC50 (in vitro): > 10000 nM
EC50 [3, 11]: 97 nM

COc1ccc(-c2ccc3c(N)c(C(=O)NCCc4ccc(OC)c(OC)c4)sc3n2)cc1 [IND-0037771]
CC50 (in vitro): > 10000 nM
EC50 [3, 11]: 419 nM

COc1ccc(CNC(=O)c2sc3nc(-c4ccc(OC)cc4)ccc3c2N)cc1 [IND-0040541]
CC50 (in vitro): > 10000 nM
EC50 [3, 11]: > 10000 nM

Nc1c(C(=O)Nc2ccc(F)cc2)sc2nc(-c3ccc4c(c3)OCO4)ccc12 [IND-0042063]
CC50 (in vitro): > 10000 nM
EC50 [3, 11]: 613 nM

COc1cc(NC(=O)c2sc3nc(-c4cccs4)ccc3c2N)cc(OC)c1OC [IND-0042103]
CC50 (in vitro): > 10000 nM
EC50 [3, 11]: > 10000 nM

COc1ccc(-c2ccc3c(N)c(C(=O)Nc4ccc(F)cc4)sc3n2)cc1OC [IND-0044746]
CC50 (in vitro): > 10000 nM
EC50 [3, 11]: 227 nM

COc1ccc(Nc2nc(-c3ccc(OC)c(OC)c3)cs2)nc1 [compound 13, [4-(3,4-dimethoxyphenyl)-thiazol-2-yl]-(5-methoxypyridin-2-yl)-amine]
EC50 (N2a-cl3 cells [4]): > 32 µM
Microsome stability T1/2 [5]: 45 min
EC50 [6]: > 32 µM
EC50 [3, 12]: 917 nM

Cc1ccc(Nc2nc(-c3ccccc3)cs2)nc1 [compound 25, (5-Methylpyridin-2-yl)-(4-phenylthiazol-2-yl)-amine]
EC50 (N2a-cl3 cells [4]): > 32 µM
Microsome stability T1/2 [5]: 10 min
EC50 [6]: > 32 µM
Dividing ELISA pEC50 (μM) 1st Expt. [3, 13]: 4.89
Dividing ELISA pEC50 (μM) 2nd Expt. [3, 14]: 5.31
Dividing ELISA pEC50 (μM) 3rd Expt. [3, 15]: 5.24
Dividing ELISA pEC50 (μM) Mean [3, 16]: 5.15
EC50 ([3]; read-out: Antiprion activity ScN2a-cl3 EC50, ScN2a-cl3 cells): 7880 nM
EC50 [3, 17]: 13000 nM
EC50 [3, 18]: 4900 nM
EC50 [3, 12]: 5740 nM
EC50 [3, 19]: 7880 nM

COc1ccc(NC(=O)c2csc(Nc3ccc(C)cn3)n2)cc1OC [compound 46, 2-(5-Methylpyridin-2-ylamino)-thiazole-4-carboxylic acid (3,4-dimethoxyphenyl)-amide]
melting point: 212 to 214 °C
EC50 (N2a-cl3 cells [4]): > 32 µM
EC50 [6]: > 32 µM
Dividing ELISA pEC50 (μM) 1st Expt. [3, 13]: 5.50
Dividing ELISA pEC50 (μM) 2nd Expt. [3, 14]: 5.72
Dividing ELISA pEC50 (μM) 3rd Expt. [3, 15]: 5.66
Dividing ELISA pEC50 (μM) Mean [3, 16]: 5.62
EC50 [3, 17]: 3190 nM
EC50 [3, 18]: 1930 nM
EC50 [3, 12]: 2200 nM
EC50 [3, 19]: 2440 nM

COc1ccc(-c2csc(NC(=O)c3cc4ccccc4cn3)n2)cc1OC [compound 47, Isoquinoline-3-carboxylic acid [4-(3,4-dimethoxyphenyl)-thiazol-2-yl]amide]
melting point: 228 to 230 °C
EC50 (N2a-cl3 cells [4]): > 10 µM
EC50 [6]: > 10 µM
Dividing ELISA pEC50 (μM) 1st Expt. [3, 13]: 5.01
Dividing ELISA pEC50 (μM) 2nd Expt. [3, 14]: 5.41
Dividing ELISA pEC50 (μM) 3rd Expt. [3, 15]: 4.97
Dividing ELISA pEC50 (μM) Mean [3, 16]: 5.13
EC50 [3, 17]: 9810 nM
EC50 [3, 18]: 3930 nM
EC50 [3, 12]: 10800 nM
EC50 [3, 19]: 8180 nM

COc1ccc(-c2csc(C(=O)Nc3cc4ccccc4cn3)n2)cc1OC [compound 48, 4-(3,4-dimethoxyphenyl)-thiazole-2-carboxylic acid isoquinolin-3-ylamide]
melting point: 196 to 202 °C
EC50 (N2a-cl3 cells [4]): > 10 µM
EC50 [6]: > 10 µM
Dividing ELISA pEC50 (μM) 1st Expt. [3, 13]: >4.5
Dividing ELISA pEC50 (μM) 2nd Expt. [3, 14]: >4.5
Dividing ELISA pEC50 (μM) 3rd Expt. [3, 15]: >4.5
EC50 [3, 17]: > 10000 nM
EC50 [3, 18]: > 10000 nM
EC50 [3, 12]: > 10000 nM
EC50 [3, 19]: > 10000 nM

COc1ccc(-c2csc(N(C)c3cc4ccccc4cn3)n2)cc1OC [compound 49, [4-(3,4-dimethoxyphenyl)-thiazol-2-yl]-isoquinolin-3-yl-methyl-amine]
melting point: 165 to 166 °C
EC50 (N2a-cl3 cells [4]): > 10 µM
EC50 [6]: > 10 µM
Dividing ELISA pEC50 (μM) 1st Expt. [3, 13]: 6.82
Dividing ELISA pEC50 (μM) 2nd Expt. [3, 14]: 6.71
Dividing ELISA pEC50 (μM) 3rd Expt. [3, 15]: 7.08
Dividing ELISA pEC50 (μM) Mean [3, 16]: 6.87
EC50 [3, 17]: 152 nM
EC50 [3, 18]: 196 nM
EC50 [3, 12]: 83 nM
EC50 [3, 19]: 144 nM

COc1ccc(-c2csc(N(C(C)=O)c3cc4ccccc4cn3)n2)cc1OC [compound 50, N-[4-(3,4-dimethoxyphenyl)-thiazol-2-yl]-N-isoquinolin-3-yl-acetamide]
melting point: 164 to 165 °C
EC50 (N2a-cl3 cells [4]): > 10 µM
EC50 [6]: > 10 µM
Dividing ELISA pEC50 (μM) 1st Expt. [3, 13]: 7.04
Dividing ELISA pEC50 (μM) 2nd Expt. [3, 14]: 7.05
Dividing ELISA pEC50 (μM) 3rd Expt. [3, 15]: 7.19
Dividing ELISA pEC50 (μM) Mean [3, 16]: 7.09
EC50 [3, 17]: 91 nM
EC50 [3, 18]: 89 nM
EC50 [3, 12]: 65 nM
EC50 [3, 19]: 82 nM
